Key:
[1] = target: T1, mutant VR1 receptor Y511C (Homo sapiens, UniProt Q8NER1, Y511C); experiment: Calcium imaging with fura-2 in transfected HEK293 cells, low pH (pH 5.1) stimulus; assay type: cell-based; set-up: expressed in transfected cells; host or cells: HEK293
Method: (§1) The resulting sequence-verified mutant VR1 DNA was inserted into the pcDNA3.1 vector (Invitrogen). Human HEK293 cells were then transfected with the DNA, incubated at 37° C. for 24-48 hrs, and then analyzed for receptor response using calcium imaging techniques.
(§2) Calcium imaging was performed using a Zeiss Axiovert 200M fluorescence microscope equipped with a Photonics Polychrome IV monochrometer fluorescence excitation system as well as a multivalve perfusion system for delivering drugs. Cells were plated on 12 mm glass coverslips and loaded with fura2-AM for 30 min at 37° C. Imaging was performed by alternatively measuring the fluorescence excited at 340 nm and 380 nm at 5 sec time intervals. The ratio between these measured fluorescence values (F340/F380) was then calculated and graphed as a function of time. The 340/380 fluorescence ratio is proportional in a nonlinear way to the intracellular free calcium concentration. Since VR1 is a calcium channel, its opening results in an influx of calcium into the cytoplasm and an increase in the 340/380 fluorescence ratio.
(§3) A normal saline (pH 7.6) wash solution was used as the control solution. […] Compound 18 is named 4-(3-Chloropyridin-2-yl)-N-(4-trifluoromethyl-phenyl)benzamide, and is described and disclosed in commonly owned co-pending International Application No. PCT/US04/033099 filed Oct. […]

[2] = target: human VR1 (Homo sapiens, UniProt Q8NER1); details: cited from earlier work
[3] = target: T1, mutant VR1 receptor Y511C; experiment: Specific binding of 3H-Resiniferatoxin to membranes of 293 HEK cells; set-up: expressed in transfected cells; host or cells: HEK293; details: 3H-RTX 0.5 nM, absence or presence of unlabeled RTX 200 nM
Method: Specific binding of ^3H-Resiniferatoxin (RTX) to membranes of 293 HEK cells expressing human VR 1 and mutant VR 1 receptor Y511C was assessed and the results are presented in FIG. 6. Binding of ^3H-RTX (0.5 nM) to the membranes was conducted in the absence (labeled total binding) or presence (labeled non specific binding) of unlabeled RTX (200 nM) as indicated.

[4] = target: T2, mutant channel S512Y (VR1) (Homo sapiens, UniProt Q8NER1, S512Y); experiment: Two-electrode voltage clamp in Xenopus oocytes, capsaicin activation; assay type: cell-based; set-up: expressed in transfected cells; host or cells: Xenopus oocytes (RNA injected, pTNT vector)
Method: (§4) The ability of capsaicin to activate the mutant VR1 receptors was evaluated in an oocyte system. cDNAs containing the coding sequences of the unmutated human VR1 receptor as well as the mutant receptors Y511A, […], and S512Y were placed into the multiple-cloning site in the pTNT vector (Promega), which contains a T7 promoter sequence, the beta-globin 5′UTR, and a polyadenylation sequence to enhance translation and RNA stability. RNA was synthesized in-vitro using T7 RNA polymerase. The RNA for each channel was injected into Xenopus oocytes (obtained from Nasco, Inc) and incubated at 16° C. for 3-5 days. Standard two-electrode voltage clamp recordings were used to analyze the function of each expressed channel. Solutions were passed over the oocytes using a multiple-valve perfusion system.

[5] = target: T3, mutant channel Y511A (VR1) (Homo sapiens, UniProt Q8NER1, Y511A); experiment: Calcium imaging with fura-2 in transfected HEK293 cells, low pH stimulus; assay type: cell-based
T3 construct: expressed in transfected cells; host or cells: HEK293
Method: as §1, §2, §3

[6] = target: T2, mutant channel S512Y (VR1); experiment: as above; assay type: cell-based; set-up: expressed in transfected cells; host or cells: HEK293
Method: as §1, §2, §3

[7] = target: T4, wild-type human VR1 receptor (Homo sapiens, UniProt Q8NER1); experiment: Two-electrode voltage clamp in Xenopus oocytes, capsaicin activation; assay type: cell-based; details: 10 μM capsaicin
T4 construct: expressed in transfected cells; host or cells: Xenopus oocytes (RNA injected, pTNT vector)
Method: as §4

[8] = target: T5, mutant VR1 receptor Y511A (Homo sapiens, UniProt Q8NER1, Y511A); experiment: as above; assay type: cell-based; details: capsaicin concentrations as high as 100 μM
T5 construct: expressed in transfected cells; host or cells: Xenopus oocytes (RNA injected, pTNT vector)
Method: as §4

[9] = target: T1, mutant VR1 receptor Y511C; experiment: as above; assay type: cell-based; details: capsaicin concentrations as high as 100 μM
Method: as §4

[10] = target: rat VR1 (Rattus norvegicus, UniProt O35433); details: cited from earlier work
Sequence of rat VR1 (O35433 whole entry): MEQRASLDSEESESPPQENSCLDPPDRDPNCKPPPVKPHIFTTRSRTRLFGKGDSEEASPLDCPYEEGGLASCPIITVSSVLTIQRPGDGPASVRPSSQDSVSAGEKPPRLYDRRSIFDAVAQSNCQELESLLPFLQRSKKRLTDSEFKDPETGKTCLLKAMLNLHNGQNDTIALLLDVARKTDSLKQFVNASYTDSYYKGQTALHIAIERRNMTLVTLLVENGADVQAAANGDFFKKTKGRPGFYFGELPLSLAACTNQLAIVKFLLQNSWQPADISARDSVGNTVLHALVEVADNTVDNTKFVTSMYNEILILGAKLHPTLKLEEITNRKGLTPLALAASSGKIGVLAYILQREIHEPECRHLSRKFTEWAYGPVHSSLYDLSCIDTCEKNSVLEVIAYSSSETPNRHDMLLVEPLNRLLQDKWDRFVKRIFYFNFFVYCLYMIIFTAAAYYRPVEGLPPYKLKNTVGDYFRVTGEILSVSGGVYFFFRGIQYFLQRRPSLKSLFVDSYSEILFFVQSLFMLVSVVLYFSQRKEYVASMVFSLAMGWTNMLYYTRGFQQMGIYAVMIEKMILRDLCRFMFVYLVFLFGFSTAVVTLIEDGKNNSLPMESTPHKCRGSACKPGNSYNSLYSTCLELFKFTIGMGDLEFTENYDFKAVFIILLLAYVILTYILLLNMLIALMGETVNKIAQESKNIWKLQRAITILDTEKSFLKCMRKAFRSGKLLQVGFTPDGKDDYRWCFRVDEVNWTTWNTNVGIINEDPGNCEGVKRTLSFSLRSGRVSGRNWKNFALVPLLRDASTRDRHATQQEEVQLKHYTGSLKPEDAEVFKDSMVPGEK

O=C(Nc1ccc(C(F)(F)F)cc1)c1ccc(-c2ncccc2Cl)cc1 [Compound 18, 4-(3-Chloropyridin-2-yl)-N-(4-trifluoromethyl-phenyl)benzamide]
IC50 ([1]; mutant VR1 receptor channel, read-out: IC50 for channel blocking activity): 135 nM

COc1cc(CC(=O)OCC2=C[C@H]3[C@@H]4C(C)(C)[C@]4(OC(C)=O)[C@H](OC(=O)Cc4ccccc4)[C@@H](C)[C@]3(O)[C@@H]3C=C(C)C(=O)[C@@]3(O)C2)ccc1O [PPAHV, phorbol 12-phenylacetate 13 acetate 20-homovanillate]
agonist activity on human VR1 ([2]; up to a concentration of 10•M): essentially inactive

C=C(C)[C@]12C[C@@H](C)[C@@]34O[C@](Cc5ccccc5)(O[C@@H]1[C@@H]3C=C(COC(=O)Cc1ccc(O)c(OC)c1)C[C@]1(O)C(=O)C(C)=C[C@@H]41)O2 [RTX, resiniferatoxin]
binding to the mutant VR1 receptor [3]: no significant binding

COc1cc(CNC(=O)CCCC/C=C/C(C)C)ccc1O [capsaicin]
capsaicin response (current) ([4]; 10 μM capsaicin (data not shown)): no detectable response | capsaicin response (current) ([4]; 100 μM capsaicin): small capsaicin response | response to capsaicin (calcium influx) ([1]; 250 nM capsaicin, Y511C in transfected 293 cells): no detectable response | sensitivity of channel to capsaicin [5]: capsaicin-insensitive | sensitivity of channel to capsaicin [6]: capsaicin-insensitive | capsaicin response (current) [7]: large response | capsaicin response (current) [8]: no detectable capsaicin response | capsaicin response (current) [9]: no detectable capsaicin response

Oc1cc2c(cc1O)CN(C(=S)NCCc1ccc(Cl)cc1)CCC2 [capsazine]
potency of inhibition of capsaicin activation, human VR1 versus rat ([2]; greater potency on human VR1 receptors than rat): approximately 6 fold | block of VR1-mediated heat response ([2]; human VR1): highly effective | block of low pH-evoked responses ([2]; human VR1): blocked | block of low pH-evoked responses [10]: not | inhibition of heat response [10]: weak inhibitor
